# Assay results reported in ChEMBL document CHEMBL1152232, “Muscarinic acetylcholine receptor antagonists: SAR and optimization of tyrosine ureas” (Bioorg Med Chem Lett, 2008).
# Target: T1, Muscarinic acetylcholine receptor M2 (Homo sapiens, UniProt P08172)
# T1 sequence (P08172 whole entry): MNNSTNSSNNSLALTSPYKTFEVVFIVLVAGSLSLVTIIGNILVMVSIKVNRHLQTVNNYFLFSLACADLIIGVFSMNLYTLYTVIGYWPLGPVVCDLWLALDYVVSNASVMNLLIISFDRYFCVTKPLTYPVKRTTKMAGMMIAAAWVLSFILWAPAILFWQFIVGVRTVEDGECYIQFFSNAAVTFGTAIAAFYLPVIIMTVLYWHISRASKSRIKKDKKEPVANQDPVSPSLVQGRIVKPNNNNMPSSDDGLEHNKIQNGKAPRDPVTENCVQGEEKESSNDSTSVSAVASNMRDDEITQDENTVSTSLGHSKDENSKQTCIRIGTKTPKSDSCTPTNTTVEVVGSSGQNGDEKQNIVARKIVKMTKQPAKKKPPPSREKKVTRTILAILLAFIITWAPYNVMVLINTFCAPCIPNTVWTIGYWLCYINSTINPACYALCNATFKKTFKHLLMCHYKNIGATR
# Experiment: Antagonist activity at human recombinant muscarinic M2 receptor expressed in CHO cells coexpressing chimeric G protein Gqi5 assessed as inhibition of acetylcholine-induced intracellular Ca2+ mobilization by FLIPR assay
# Format: functional, cell-based
# Details: not given
row,SMILES,IC50 [nM]
1,CCOC(=O)c1ccc(NC(=O)N[C@@H](Cc2ccc(O)cc2)C(=O)NC2CCN(CC3CC3)C2)cc1 (stereo partly drawn),100
2,CCOC(=O)c1ccc(NC(=O)N[C@@H](Cc2ccc(O)cc2)C(=O)NC2CCN(CC)C2)cc1 (stereo partly drawn),2510
3,CCOC(=O)c1ccc(NC(=O)N[C@@H](Cc2ccc(O)cc2)C(=O)NC2CCN(Cc3cccc(C#N)c3)C2)cc1 (stereo partly drawn),100
4,CCOC(=O)c1ccc(NC(=O)N[C@@H](Cc2ccc(O)cc2)C(=O)NC2CCN(Cc3cccc(O)c3)C2)cc1 (stereo partly drawn),158
5,CCOC(=O)c1ccc(NC(=O)N[C@@H](Cc2ccc(O)cc2)C(=O)NC2CCN(Cc3ccccc3OC)C2)cc1 (stereo partly drawn),158
6,CCOC(=O)c1ccc(NC(=O)N[C@@H](Cc2ccc(O)cc2)C(=O)NC2CCN(Cc3cccc(OC)c3)C2)cc1 (stereo partly drawn),316
7,CCOC(=O)c1ccc(NC(=O)N[C@@H](Cc2ccc(O)cc2)C(=O)NC2CCN(Cc3ccc(OC)cc3)C2)cc1 (stereo partly drawn),251
8,CCOC(=O)c1ccc(NC(=O)N[C@@H](Cc2ccc(O)cc2)C(=O)NC2CCN(Cc3cccc(Cl)c3)C2)cc1 (stereo partly drawn),126
9,CC(C)OC(=O)c1ccc(NC(=O)N[C@@H](Cc2ccc(O)cc2)C(=O)NC2CCN(Cc3ccc(O)cc3)C2)cc1 (stereo partly drawn),79.4
10,CCOC(=O)c1ccc(NC(=O)N[C@@H](Cc2ccc(O)cc2)C(=O)NC2CCN(Cc3ccccc3)C2)cc1 (stereo partly drawn),200
11,CCOC(=O)c1ccc(NC(=O)N[C@@H](Cc2ccc(O)cc2)C(=O)NC2CCN(Cc3ccc4c(c3)OCO4)C2)cc1 (stereo partly drawn),200
12,CCOC(=O)c1ccc(NC(=O)N[C@@H](Cc2ccc(O)cc2)C(=O)NC2CCN(Cc3cccc(C(F)(F)F)c3)C2)cc1 (stereo partly drawn),631

# Same assay, conditions: read-out: pA2 (converted)
row,SMILES,Kb [nM]
1,C=CC[N+]1(Cc2cccc(O)c2)CCC[C@H](NC(=O)[C@H](Cc2ccc(O)cc2)NC(=O)Nc2ccc(C(=O)OC(C)C)cc2)C1 (stereo partly drawn),1.58

# Target: Muscarinic acetylcholine receptor M1 and M3 (Homo sapiens) (UniProt P20309+P11229)
# Experiment: Selectivity for human recombinant muscarinic M3 receptor over human recombinant muscarinic M1 receptor
# Details: not given
# Sequence of Muscarinic acetylcholine receptor M1 and M3 (Homo sapiens) (P20309 whole entry, looked up, one chain of several): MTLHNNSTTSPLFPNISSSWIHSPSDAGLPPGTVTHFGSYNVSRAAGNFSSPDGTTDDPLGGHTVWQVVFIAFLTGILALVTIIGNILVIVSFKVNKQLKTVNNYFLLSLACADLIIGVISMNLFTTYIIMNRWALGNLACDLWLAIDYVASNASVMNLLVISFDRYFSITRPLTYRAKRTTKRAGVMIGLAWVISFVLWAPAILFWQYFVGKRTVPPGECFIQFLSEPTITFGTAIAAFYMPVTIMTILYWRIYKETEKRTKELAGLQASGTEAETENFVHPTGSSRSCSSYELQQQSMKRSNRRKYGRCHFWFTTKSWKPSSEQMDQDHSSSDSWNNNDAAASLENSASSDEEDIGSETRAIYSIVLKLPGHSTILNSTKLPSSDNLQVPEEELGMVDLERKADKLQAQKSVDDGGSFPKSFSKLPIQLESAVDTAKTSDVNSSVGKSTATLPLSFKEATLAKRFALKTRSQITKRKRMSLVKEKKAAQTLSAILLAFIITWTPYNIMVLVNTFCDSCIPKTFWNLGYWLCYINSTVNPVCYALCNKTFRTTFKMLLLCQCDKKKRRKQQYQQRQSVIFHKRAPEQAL
row,SMILES,Selectivity ratio
1,C=CC[N+]1(Cc2cccc(O)c2)CCC[C@H](NC(=O)[C@H](Cc2ccc(O)cc2)NC(=O)Nc2ccc(C(=O)OC(C)C)cc2)C1 (stereo partly drawn),100
2,CCOC(=O)c1ccc(NC(=O)N[C@@H](Cc2ccc(O)cc2)C(=O)NC2CCN(CC3CC3)C2)cc1 (stereo partly drawn),100
3,CCOC(=O)c1ccc(NC(=O)N[C@@H](Cc2ccc(O)cc2)C(=O)NC2CCN(CC)C2)cc1 (stereo partly drawn),100
4,CCOC(=O)c1ccc(NC(=O)N[C@@H](Cc2ccc(O)cc2)C(=O)NC2CCN(Cc3cccc(C#N)c3)C2)cc1 (stereo partly drawn),100
5,CCOC(=O)c1ccc(NC(=O)N[C@@H](Cc2ccc(O)cc2)C(=O)NC2CCN(Cc3cccc(O)c3)C2)cc1 (stereo partly drawn),100
6,CCOC(=O)c1ccc(NC(=O)N[C@@H](Cc2ccc(O)cc2)C(=O)NC2CCN(Cc3ccccc3OC)C2)cc1 (stereo partly drawn),100
7,CCOC(=O)c1ccc(NC(=O)N[C@@H](Cc2ccc(O)cc2)C(=O)NC2CCN(Cc3cccc(OC)c3)C2)cc1 (stereo partly drawn),100
8,CCOC(=O)c1ccc(NC(=O)N[C@@H](Cc2ccc(O)cc2)C(=O)NC2CCN(Cc3ccc(OC)cc3)C2)cc1 (stereo partly drawn),100
9,CCOC(=O)c1ccc(NC(=O)N[C@@H](Cc2ccc(O)cc2)C(=O)NC2CCN(Cc3cccc(Cl)c3)C2)cc1 (stereo partly drawn),100
10,CC(C)OC(=O)c1ccc(NC(=O)N[C@@H](Cc2ccc(O)cc2)C(=O)NC2CCN(Cc3ccc(O)cc3)C2)cc1 (stereo partly drawn),100
11,CCOC(=O)c1ccc(NC(=O)N[C@@H](Cc2ccc(O)cc2)C(=O)NC2CCN(Cc3ccccc3)C2)cc1 (stereo partly drawn),100
12,CCOC(=O)c1ccc(NC(=O)N[C@@H](Cc2ccc(O)cc2)C(=O)NC2CCN(Cc3ccc4c(c3)OCO4)C2)cc1 (stereo partly drawn),100
13,CCOC(=O)c1ccc(NC(=O)N[C@@H](Cc2ccc(O)cc2)C(=O)NC2CCN(Cc3cccc(C(F)(F)F)c3)C2)cc1 (stereo partly drawn),100
14,CCOC(=O)c1ccc(NC(=O)N[C@@H](Cc2ccc(O)cc2)C(=O)NC2CCN(Cc3ccc(O)cc3)C2)cc1 (mixture of isomers),100

# Target: Muscarinic acetylcholine receptors; M2 & M3 (Homo sapiens) (UniProt P20309+P08172)
# Experiment: Selectivity for human recombinant muscarinic M3 receptor over human recombinant muscarinic M2 receptor
# Details: not given
# Sequence of Muscarinic acetylcholine receptors; M2 & M3 (Homo sapiens) (P20309 whole entry, looked up, one chain of several): as above
row,SMILES,Selectivity ratio
1,C=CC[N+]1(Cc2cccc(O)c2)CCC[C@H](NC(=O)[C@H](Cc2ccc(O)cc2)NC(=O)Nc2ccc(C(=O)OC(C)C)cc2)C1 (stereo partly drawn),> 10
2,CCOC(=O)c1ccc(NC(=O)N[C@@H](Cc2ccc(O)cc2)C(=O)NC2CCN(CC3CC3)C2)cc1 (stereo partly drawn),10
3,CCOC(=O)c1ccc(NC(=O)N[C@@H](Cc2ccc(O)cc2)C(=O)NC2CCN(CC)C2)cc1 (stereo partly drawn),10
4,CCOC(=O)c1ccc(NC(=O)N[C@@H](Cc2ccc(O)cc2)C(=O)NC2CCN(Cc3cccc(C#N)c3)C2)cc1 (stereo partly drawn),10
5,CCOC(=O)c1ccc(NC(=O)N[C@@H](Cc2ccc(O)cc2)C(=O)NC2CCN(Cc3cccc(O)c3)C2)cc1 (stereo partly drawn),10
6,CCOC(=O)c1ccc(NC(=O)N[C@@H](Cc2ccc(O)cc2)C(=O)NC2CCN(Cc3ccccc3OC)C2)cc1 (stereo partly drawn),10
7,CCOC(=O)c1ccc(NC(=O)N[C@@H](Cc2ccc(O)cc2)C(=O)NC2CCN(Cc3cccc(OC)c3)C2)cc1 (stereo partly drawn),10
8,CCOC(=O)c1ccc(NC(=O)N[C@@H](Cc2ccc(O)cc2)C(=O)NC2CCN(Cc3ccc(OC)cc3)C2)cc1 (stereo partly drawn),10
9,CCOC(=O)c1ccc(NC(=O)N[C@@H](Cc2ccc(O)cc2)C(=O)NC2CCN(Cc3cccc(Cl)c3)C2)cc1 (stereo partly drawn),10
10,CC(C)OC(=O)c1ccc(NC(=O)N[C@@H](Cc2ccc(O)cc2)C(=O)NC2CCN(Cc3ccc(O)cc3)C2)cc1 (stereo partly drawn),> 10
11,CCOC(=O)c1ccc(NC(=O)N[C@@H](Cc2ccc(O)cc2)C(=O)NC2CCN(Cc3ccccc3)C2)cc1 (stereo partly drawn),10
12,CCOC(=O)c1ccc(NC(=O)N[C@@H](Cc2ccc(O)cc2)C(=O)NC2CCN(Cc3ccc4c(c3)OCO4)C2)cc1 (stereo partly drawn),10
13,CCOC(=O)c1ccc(NC(=O)N[C@@H](Cc2ccc(O)cc2)C(=O)NC2CCN(Cc3cccc(C(F)(F)F)c3)C2)cc1 (stereo partly drawn),10
14,CCOC(=O)c1ccc(NC(=O)N[C@@H](Cc2ccc(O)cc2)C(=O)NC2CCN(Cc3ccc(O)cc3)C2)cc1 (mixture of isomers),10

# Target: T2, Muscarinic acetylcholine receptor M1 (Homo sapiens, UniProt P11229)
# T2 sequence (P11229 whole entry): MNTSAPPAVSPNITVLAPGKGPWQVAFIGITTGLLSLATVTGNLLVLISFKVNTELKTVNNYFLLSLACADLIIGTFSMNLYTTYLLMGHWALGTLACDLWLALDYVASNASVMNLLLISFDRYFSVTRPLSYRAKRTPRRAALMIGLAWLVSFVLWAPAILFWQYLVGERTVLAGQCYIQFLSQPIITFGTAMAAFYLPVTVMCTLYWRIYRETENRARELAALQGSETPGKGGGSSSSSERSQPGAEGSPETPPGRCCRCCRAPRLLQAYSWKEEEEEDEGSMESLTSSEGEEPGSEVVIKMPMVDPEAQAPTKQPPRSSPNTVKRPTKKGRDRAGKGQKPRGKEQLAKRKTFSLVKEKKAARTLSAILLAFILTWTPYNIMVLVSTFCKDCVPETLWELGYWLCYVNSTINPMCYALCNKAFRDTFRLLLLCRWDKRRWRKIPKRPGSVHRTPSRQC
# Experiment: Antagonist activity at human recombinant muscarinic M1 receptor expressed in CHO cells assessed as inhibition of acetylcholine-induced intracellular Ca2+ mobilization by FLIPR assay
# Format: functional, cell-based
# Details: not given
row,SMILES,IC50 [nM]
1,CCOC(=O)c1ccc(NC(=O)N[C@@H](Cc2ccc(O)cc2)C(=O)NC2CCN(CC3CC3)C2)cc1 (stereo partly drawn),631
2,CCOC(=O)c1ccc(NC(=O)N[C@@H](Cc2ccc(O)cc2)C(=O)NC2CCN(CC)C2)cc1 (stereo partly drawn),> 3160
3,CCOC(=O)c1ccc(NC(=O)N[C@@H](Cc2ccc(O)cc2)C(=O)NC2CCN(Cc3cccc(C#N)c3)C2)cc1 (stereo partly drawn),251
4,CCOC(=O)c1ccc(NC(=O)N[C@@H](Cc2ccc(O)cc2)C(=O)NC2CCN(Cc3cccc(O)c3)C2)cc1 (stereo partly drawn),794
5,CCOC(=O)c1ccc(NC(=O)N[C@@H](Cc2ccc(O)cc2)C(=O)NC2CCN(Cc3ccccc3OC)C2)cc1 (stereo partly drawn),1000
6,CCOC(=O)c1ccc(NC(=O)N[C@@H](Cc2ccc(O)cc2)C(=O)NC2CCN(Cc3cccc(OC)c3)C2)cc1 (stereo partly drawn),2510
7,CCOC(=O)c1ccc(NC(=O)N[C@@H](Cc2ccc(O)cc2)C(=O)NC2CCN(Cc3ccc(OC)cc3)C2)cc1 (stereo partly drawn),501
8,CCOC(=O)c1ccc(NC(=O)N[C@@H](Cc2ccc(O)cc2)C(=O)NC2CCN(Cc3cccc(Cl)c3)C2)cc1 (stereo partly drawn),1260
9,CC(C)OC(=O)c1ccc(NC(=O)N[C@@H](Cc2ccc(O)cc2)C(=O)NC2CCN(Cc3ccc(O)cc3)C2)cc1 (stereo partly drawn),1000
10,CCOC(=O)c1ccc(NC(=O)N[C@@H](Cc2ccc(O)cc2)C(=O)NC2CCN(Cc3ccccc3)C2)cc1 (stereo partly drawn),2000
11,CCOC(=O)c1ccc(NC(=O)N[C@@H](Cc2ccc(O)cc2)C(=O)NC2CCN(Cc3ccc4c(c3)OCO4)C2)cc1 (stereo partly drawn),1000
12,CCOC(=O)c1ccc(NC(=O)N[C@@H](Cc2ccc(O)cc2)C(=O)NC2CCN(Cc3cccc(C(F)(F)F)c3)C2)cc1 (stereo partly drawn),> 3160

# Same assay, conditions: read-out: pA2 (converted)
row,SMILES,Kb [nM]
1,C=CC[N+]1(Cc2cccc(O)c2)CCC[C@H](NC(=O)[C@H](Cc2ccc(O)cc2)NC(=O)Nc2ccc(C(=O)OC(C)C)cc2)C1 (stereo partly drawn),15.8

# System: not listed separately
# Experiment: Permeability across artificial membrane
# Format: ADME
# Details: PAMPA; read-out: permeability
row,SMILES,Papp [×10⁻⁶ cm/s]
1,CC(C)OC(=O)c1ccc(NC(=O)N[C@@H](Cc2ccc(O)cc2)C(=O)N[C@H]2CCC[N+](C)(Cc3cccc(O)c3)C2)cc1.[I-] (stereo partly drawn),< 0.3

# Target: Muscarinic acetylcholine receptor M3 (Homo sapiens, UniProt P20309)
# Experiment: Antagonist activity at human recombinant muscarinic M3 receptor expressed in CHO cells assessed as inhibition of acetylcholine-induced intracellular Ca2+ mobilization by FLIPR assay
# Format: functional, cell-based
# Details: not given
# Sequence of Muscarinic acetylcholine receptor M3 (P20309 whole entry): as the sequence (P20309 whole entry, looked up, one chain of several) above
row,SMILES,IC50 [nM]
1,CCOC(=O)c1ccc(NC(=O)N[C@@H](Cc2ccc(O)cc2)C(=O)NC2CCN(CC3CC3)C2)cc1 (stereo partly drawn),25.1
2,CCOC(=O)c1ccc(NC(=O)N[C@@H](Cc2ccc(O)cc2)C(=O)NC2CCN(CC)C2)cc1 (stereo partly drawn),794
3,CCOC(=O)c1ccc(NC(=O)N[C@@H](Cc2ccc(O)cc2)C(=O)NC2CCN(Cc3cccc(C#N)c3)C2)cc1 (stereo partly drawn),6.31
4,CCOC(=O)c1ccc(NC(=O)N[C@@H](Cc2ccc(O)cc2)C(=O)NC2CCN(Cc3cccc(O)c3)C2)cc1 (stereo partly drawn),20
5,CCOC(=O)c1ccc(NC(=O)N[C@@H](Cc2ccc(O)cc2)C(=O)NC2CCN(Cc3ccccc3OC)C2)cc1 (stereo partly drawn),50.1
6,CCOC(=O)c1ccc(NC(=O)N[C@@H](Cc2ccc(O)cc2)C(=O)NC2CCN(Cc3cccc(OC)c3)C2)cc1 (stereo partly drawn),25.1
7,CCOC(=O)c1ccc(NC(=O)N[C@@H](Cc2ccc(O)cc2)C(=O)NC2CCN(Cc3ccc(OC)cc3)C2)cc1 (stereo partly drawn),20
8,CCOC(=O)c1ccc(NC(=O)N[C@@H](Cc2ccc(O)cc2)C(=O)NC2CCN(Cc3cccc(Cl)c3)C2)cc1 (stereo partly drawn),7.94
9,CC(C)OC(=O)c1ccc(NC(=O)N[C@@H](Cc2ccc(O)cc2)C(=O)NC2CCN(Cc3ccc(O)cc3)C2)cc1 (stereo partly drawn),5.01
10,CCOC(=O)c1ccc(NC(=O)N[C@@H](Cc2ccc(O)cc2)C(=O)NC2CCN(Cc3ccccc3)C2)cc1 (stereo partly drawn),15.8
11,CCOC(=O)c1ccc(NC(=O)N[C@@H](Cc2ccc(O)cc2)C(=O)NC2CCN(Cc3ccc4c(c3)OCO4)C2)cc1 (stereo partly drawn),31.6
12,CCOC(=O)c1ccc(NC(=O)N[C@@H](Cc2ccc(O)cc2)C(=O)NC2CCN(Cc3cccc(C(F)(F)F)c3)C2)cc1 (stereo partly drawn),15.8

# Same assay, conditions: read-out: pA2 (converted)
row,SMILES,Kb [nM]
1,C=CC[N+]1(Cc2cccc(O)c2)CCC[C@H](NC(=O)[C@H](Cc2ccc(O)cc2)NC(=O)Nc2ccc(C(=O)OC(C)C)cc2)C1 (stereo partly drawn),0.1
